Values of other authors as cited in patent US20020045179A1, “Toxicity typing using mesenchymal stem cells” (priority 2000, published 2002).
Read-outs that look alike come from different tables or passages of the source.

Columns and labels:
[1] = for liver toxicity (in words): predetermined toxicity stated in text of Example 2
[2] = in vivo
[3] = in vivo; remark: listed apart in the source
[4] = in vivo; remark: listed apart in the source
[5] = Table 1, predetermined toxicity by tissue/organ

In the case of CC(=O)Nc1ccc(O)cc1 [acetominophen], the “TOXICITIES LIVER” value ([1]; in vivo) is given as “+”.

In the case of c1ccc2c(c1)cc1ccc3cccc4ccc2c1c34 [benzo(a)pyrene], the “TOXICITIES CV” value [2] is listed as “+”.

For N.N.O=C([O-])C1(C(=O)[O-])CCC1.[Pt+2] [carboplatin], the “TOXICITIES GI” value [3] is listed as “+”.

For CCOC(=O)C(C)(C)Oc1ccc(Cl)cc1 [clofibrate], the “TOXICITIES LIVER” value [1, 5] is listed as “ntc”.

For N=C(N)NCCCCCCC(=O)NC(O)C(=O)NCCCCNCCCN (stereo not drawn) [deoxyspergualin], the “TOXICITIES CV” value [2] is listed as “+”.

In the case of CCC(=O)O[C@H]1[C@H](O[C@@H]2[C@@H](C)[C@H](O[C@H]3C[C@@](C)(OC)[C@@H](O)[C@H](C)O3)[C@@H](C)C(=O)O[C@H](CC)[C@@](C)(O)[C@H](O)[C@@H](C)C(=O)[C@H](C)C[C@@]2(C)O)O[C@H](C)C[C@@H]1N(C)C [erythromycin estolate], the “liver toxicity (in words)” value [1] is given as “known liver toxicity”.

In the case of COc1nc(C(Cl)(Cl)Cl)c(Cl)c(OC)c1Cl [penclomedine], the “TOXICITIES CNS” value [4] is given as “+”.

In the case of CN(CCOc1ccc(CC2SC(=O)NC2=O)cc1)c1ccccn1 (stereo not drawn) [rosiglitazone], the “TOXICITIES LIVER” value [1, 5] is listed as “ntc”.

In the case of Cc1c(C)c2c(c(C)c1O)CCC(C)(COc1ccc(CC3SC(=O)NC3=O)cc1)O2 (stereo not drawn) [troglitazone], the “liver toxicity (in words)” value [1] is listed as “rare but severe liver toxicity”.
